# Measurements: patent US7410975B2, “Small molecule toll-like receptor (TLR) antagonists” (Coley Pharmaceutical Group, Inc., priority 2003, dated 2008)
# Target: T1, human TLR7 (hTLR7) (Homo sapiens, UniProt Q9NYK1)
# T1 construct: expressed in transfected cells
# T1 sequence (Q9NYK1 27-1049): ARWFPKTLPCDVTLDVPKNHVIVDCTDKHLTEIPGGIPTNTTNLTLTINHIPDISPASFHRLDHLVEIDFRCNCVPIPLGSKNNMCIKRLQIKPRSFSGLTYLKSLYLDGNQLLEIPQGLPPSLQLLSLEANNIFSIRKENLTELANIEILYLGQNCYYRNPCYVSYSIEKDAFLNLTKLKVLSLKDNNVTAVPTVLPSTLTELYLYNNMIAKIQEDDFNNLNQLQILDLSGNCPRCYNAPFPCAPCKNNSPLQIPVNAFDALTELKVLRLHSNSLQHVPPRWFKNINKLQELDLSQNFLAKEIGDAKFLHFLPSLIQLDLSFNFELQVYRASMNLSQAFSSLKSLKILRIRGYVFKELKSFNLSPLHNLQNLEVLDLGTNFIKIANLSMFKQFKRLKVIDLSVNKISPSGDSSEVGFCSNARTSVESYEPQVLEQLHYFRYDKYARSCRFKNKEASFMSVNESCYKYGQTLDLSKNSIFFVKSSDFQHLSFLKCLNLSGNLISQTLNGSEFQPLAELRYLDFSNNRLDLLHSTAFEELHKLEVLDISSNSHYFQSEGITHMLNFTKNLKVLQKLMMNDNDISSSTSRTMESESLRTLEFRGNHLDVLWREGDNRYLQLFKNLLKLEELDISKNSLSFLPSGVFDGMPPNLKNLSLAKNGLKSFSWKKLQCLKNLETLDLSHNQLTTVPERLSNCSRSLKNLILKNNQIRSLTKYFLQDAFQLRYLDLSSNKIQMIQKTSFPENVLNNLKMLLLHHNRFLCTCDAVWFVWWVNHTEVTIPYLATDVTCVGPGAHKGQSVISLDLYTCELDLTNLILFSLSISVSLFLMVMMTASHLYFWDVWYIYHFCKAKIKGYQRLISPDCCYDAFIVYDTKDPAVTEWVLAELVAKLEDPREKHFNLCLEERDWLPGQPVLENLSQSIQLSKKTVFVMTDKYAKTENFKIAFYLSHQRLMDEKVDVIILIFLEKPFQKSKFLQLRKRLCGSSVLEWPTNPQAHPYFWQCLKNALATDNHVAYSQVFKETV
# Test: Antagonist screen, hTLR7-NFκB-293 cells, NF-κB-luciferase reporter, with EC50 of R848
# Type: cell-based
# Settings: compound at 0.5, 5, 50 μg/ml; EC50 concentration of R848; 16 h; NF-κB-luciferase
# Description: The method is described in greater detail as follows. The cells for each individual cell clone (hTLR3-NFκB-293, hTLR7-NFκB-293, hTLR8-NFκB-293 and hTLR9-NFκB-293) were counted and seeded one day before the stimulation at 1.5×10^4 cells per well in 96-well cell culture plates. To become adherent the cells were incubated after seeding overnight at 37° C. in 5% CO2 humidified air.
# The screen for each compound was performed at the same time for all of the receptors TLR3, TLR7, TLR8 and TLR9. Up to fifteen test compounds, each assayed in duplicate at each of three different final concentrations (0.5 μg/ml, 5 μg/ml, and 50 μg/ml), were used for 16 h cell stimulation on a single multiwell culture plate. A 4× final concentration master plate was created to prepare the different test compounds before they were added to the cells.
# Controls were added as duplicates individually for each cell clone on the cell culture plate. Positive controls were used as follows (final concentrations): 50 μg/ml poly(I:C) for hTLR3-NFκB-293; 8 μM resiquimod (R848) for hTLR7-NFκB-293; 30 μM R848 for hTLR8-NFκB-293; and 2.5 μM CpG-ODN 2006 for hTLR9-NFκB-293. Media alone was used as negative control. After addition of controls and small molecules, the cell clones were additionally stimulated with the EC50 concentration of the appropriate receptor-specific ligand.
# The mean value of wells H2 and H5 (each with cells and EC50 concentration of the appropriate receptor-specific ligand) divided by the mean of wells H3 and H6 (each with cells alone) yielded the baseline response (i.e., fold induction of luciferase activity) to EC50 concentration of the appropriate receptor-specific ligand.
# After 16 h stimulation the supernatant was removed and the cells treated with lysis buffer and stored at −80° C. before measuring.
# For each screen result a graphical documentation was performed.
# The baseline result (measured with addition of the EC50 concentration of the receptor-specific ligand) for each cell culture plate was measured as described above. Antagonistic effects were measured by down regulation compared to the baseline. Antagonists were scored as follows: • 13: compounds for which there was clear down regulation at 0.5 μg/ml, 5 μg/ml, and 50 μg/ml; • 12: compounds for which there was clear down regulation at 5 μg/ml and 50 μg/ml; • 11: compounds for which there was clear down regulation only at 50 μg/ml; • —: compounds for which there was no clear down regulation even at 50 μg/ml. Agonists
# Results were expressed as fold induction over baseline luciferase activity measured in the absence of R848. […] Additional screening was performed in like manner using additional small molecules selected from another library or specifically prepared for this purpose. Scoring is reported as above but as applied to TLR7.
row,Compound,"hTLR7 (inhibitory effect, antagonist score)"
1,"Cc1cccc(CN2CCN(C(c3ccccc3)c3ccc(Cl)cc3)CC2)c1.Cl.Cl (stereo not shown) [compound 457, Meclozinedihydrochioride]",— (compounds for which there was no clear down regulation even at 50 μg/ml)
2,"CC(CN(C)C)CN1c2ccccc2Sc2ccccc21.CC(CN(C)C)CN1c2ccccc2Sc2ccccc21.O=C(O)C(O)C(O)C(=O)O (stereo not shown) [compound 842, Trimeprazine tartrate]",— (compounds for which there was no clear down regulation even at 50 μg/ml)
3,O=C1c2ccccc2C(=O)c2c1ccc1c(=O)n(C3CCCCC3)[nH]c21 [compound 1015],— (compounds for which there was no clear down regulation even at 50 μg/ml)
4,"CS(=O)(=O)O.OC(CCN1CCCCC1)(c1ccccc1)c1ccccc1 [compound 799, Pridinolmethanesulfonate salt]",— (compounds for which there was no clear down regulation even at 50 μg/ml)
5,"CCN(CC)C(C)CN1c2ccccc2Sc2ccccc21.Cl (stereo not shown) [compound 840, Ethopropazinehydrochloride]",— (compounds for which there was no clear down regulation even at 50 μg/ml)
6,"CC[C@]12CCCN3CCc4c(n(c5ccccc45)[C@](O)(C(=O)OC)C1)[C@@H]32 [compound 636, Epivincamine]",— (compounds for which there was no clear down regulation even at 50 μg/ml)
7,"CCOC(=O)Oc1c(OC)cc(C(=O)O[C@@H]2C[C@@H]3CN4CCc5c([nH]c6cc(OC)ccc56)[C@H]4C[C@@H]3[C@H](C(=O)OC)[C@H]2OC)cc1OC [compound 564, Syrosingopine]",11 (compounds for which there was clear down regulation only at 50 μg/ml)
8,"CN(C)CCCN1c2ccccc2Sc2ccccc21.Cl [compound 693, Promazinehydrochloride]",12 (compounds for which there was clear down regulation at 5 μg/ml and 50 μg/ml)
9,"Cc1c2ccncc2c(C)c2c1[nH]c1ccccc12 [compound 614, Ellipticine]","13 (compounds for which there was clear down regulation at 0.5 μg/ml, 5 μg/ml, and 50 μg/ml)"
10,"C[N+]12CCC(CC1)C(OC(=O)C(O)(c1ccccc1)c1ccccc1)C2.[Br-] (stereo not shown) [compound 822, Clidinium bromide]",— (compounds for which there was no clear down regulation even at 50 μg/ml)
11,"CN(C)CC/C=C1/c2ccccc2CSc2ccccc21.Cl [compound 488, Dosulepin hydrochloride]",— (compounds for which there was no clear down regulation even at 50 μg/ml)
12,"CN1CCCCC1CCN1c2ccccc2Sc2ccc([S+](C)[O-])cc21.O=S(=O)(O)c1ccccc1 (stereo not shown) [compound 529, Mesoridazine besylate]",— (compounds for which there was no clear down regulation even at 50 μg/ml)
13,O=C(O)c1ccccc1NC1CC=CC2=C1C(=O)c1ccccc1C2=O (stereo not shown) [compound 917],11 (compounds for which there was clear down regulation only at 50 μg/ml)
14,"Cl.Cl.c1ccc2c3c([nH]c2c1)C1C2CCC(C4CCCNC42)N1CC3 (stereo not shown) [compound 685, Nitrarine dihydorchloride]",— (compounds for which there was no clear down regulation even at 50 μg/ml)
15,"CC1NCCc2c1[nH]c1ccccc21.Cl (racemic) [compound 619, Eleagnine hydrochloride (R,S)]",— (compounds for which there was no clear down regulation even at 50 μg/ml)
16,"COC(=O)C1=CO[C@@H](C)[C@@H]2CN3CCc4c([nH]c5ccccc45)[C@@H]3C[C@H]12 [compound 593, Tetrahydroalstonine]",11 (compounds for which there was clear down regulation only at 50 μg/ml)

row,Compound,"hTLR7 (inhibitory effect, antagonist score)"
1,COCCCNC(=O)c1ccc2c(c1N)C(=O)c1ccccc1C2=O [compound 1337],11 (compounds for which there was clear down regulation only at 50 μg/ml)
2,"C[C@]12N[C@H](Cc3ccccc31)c1ccccc12.O=C(O)/C=C\C(=O)O [compound 109, Dizocilpine maleate]",— (compounds for which there was no clear down regulation even at 50 μg/ml)
3,NC(=O)c1cccc2c1-c1ccccc1C2 [compound 1132],11 (compounds for which there was clear down regulation only at 50 μg/ml)
4,"CN(C)CCCN1c2ccccc2Sc2ccc(C(F)(F)F)cc21.Cl [compound 53, Triflupromazinehydrochloride]",11 (compounds for which there was clear down regulation only at 50 μg/ml)
5,NC(=O)c1cc(N)c2c(c1N)C(=O)c1ccccc1C2=O [compound 1158],— (compounds for which there was no clear down regulation even at 50 μg/ml)
6,"CNCCCN1c2ccccc2CCc2ccccc21.Cl [compound 343, Desipraminehydrochloride]",12 (compounds for which there was clear down regulation at 5 μg/ml and 50 μg/ml)
7,CC1CCN(C(=O)c2cccc3c2-c2ccccc2C3=O)CC1 [compound 1243],11 (compounds for which there was clear down regulation only at 50 μg/ml)
8,Metixene hydrochloride [compound 491],11 (compounds for which there was clear down regulation only at 50 μg/ml)
9,"COc1ccc2c(c1)[nH]c1c(C)nccc12.Cl [compound 613, harmine hydrochloride]","13 (compounds for which there was clear down regulation at 0.5 μg/ml, 5 μg/ml, and 50 μg/ml)"
10,"COC(=O)[C@H]1[C@H]2C[C@@H]3c4[nH]c5cc(OC)ccc5c4CCN3C[C@H]2C[C@@H](OC(=O)/C=C/c2cc(OC)c(OC)c(OC)c2)[C@@H]1OC [compound 568, Rescinnamin]",— (compounds for which there was no clear down regulation even at 50 μg/ml)
11,O=C(c1cccc2c1-c1ccccc1/C2=N\O)N1CCCCC1 [compound 1050],12 (compounds for which there was clear down regulation at 5 μg/ml and 50 μg/ml)
12,"CC[C@]12CCCN3CCc4c(n(c5ccccc45)C(=O)C1)[C@@H]32 [compound 607, Eburnamonine]",11 (compounds for which there was clear down regulation only at 50 μg/ml)
13,COC(=O)c1ccc(C2CC(=O)Nc3c2ccc2ccccc32)cc1 (stereo not shown) [compound 965],12 (compounds for which there was clear down regulation at 5 μg/ml and 50 μg/ml)
14,C=CCc1ccccc1OC1(c2ccccc2)OC(=O)c2ccccc21 (stereo not shown) [compound 957],11 (compounds for which there was clear down regulation only at 50 μg/ml)
15,"Clc1ccc(C(c2ccccc2Cl)C(Cl)Cl)cc1 (stereo not shown) [compound 833, Mitotane]",11 (compounds for which there was clear down regulation only at 50 μg/ml)
